Consider 24 compounds from patent publication US9422311B2, “Compounds for the treatment of hepatitis C” (priority 2012, dated 2016).

Like-named read-outs stand apart in the source and are kept apart here.

The subject of this test is HCV pseudoparticles, genotype 1a (H77C) E1 and E2 envelope. In words: HCV pseudoparticle infection assay (luciferase, Huh7 cells). The format is cell-based, hepatitis C virus (HCV) genotype 1a. Particulars: Hepatitis C virus, Huh-7, 48 h, read-out: EC50 (nM) 1a (H77C), HCV pseudoparticles genotype 1a (H77C), Huh7 cells, luciferase 2 days after infection.

On to `CC1(C)CNC(=O)c2ccc(cc2)Nc2nc(nc(OCC(F)(F)F)n2)NCc2ccc(c(Cl)c2)OCCCN(C(=O)C(=O)Nc2cc(F)cc(F)c2)C1` [Example 3010], for which the EC50 (class symbol) lay in the range of 0.1 to 100 nM. Consider `C=C1COc2ccc(cc2)CNc2nc(nc(OCC(F)(F)F)n2)Nc2ccc(cc2)C(=O)NCC(C)(C)CN(C(=O)C(=O)OCC)C1` [Example 1001], for which the EC50 reads like this: (class symbol) 0.1 to 100 nM; (numeric value) 0.629 nM. For `CCc1nnc(NC(=O)C(=O)N2CCCOc3ccc(cc3Cl)CNc3nc(nc(OCC(F)(F)F)n3)Nc3ccc(cc3)C(=O)NCC(C)(C)C2)s1` [Example 3016] the same measures were 0.1 to 100 nM and 24 nM. `Cc1ccc(NC(=O)C(=O)N2CCCOc3ccc(cc3Cl)CNc3nc(nc(OCC(F)(F)F)n3)Nc3ccc(cc3)C(=O)NCC(C)(C)C2)cc1` [Example 3003]: the EC50 (class symbol) was in the range of 0.1 to 100 nM. On to `Cc1cc(NC(=O)C(=O)N2CCCOc3ccc(cc3Cl)CNc3nc(nc(OCC(F)(F)F)n3)Nc3ccc(cc3)C(=O)NCC(C)(C)C2)no1` [Example 3017], for which the EC50 (class symbol) lay within 0.1 to 100 nM. Still for that read-out and setting: to `CC1(C)CNC(=O)c2ccc(cc2)Nc2nc(nc(OCC(F)(F)F)n2)NCc2ccc(c(Cl)c2)OCCCN(C(=O)C(=O)N2CCOCC2)C1` [Example 3005] belongs 0.1 to 100 nM; to `CC1(C)CNC(=O)c2ccc(cc2)Nc2nc(nc(OCC(F)(F)F)n2)NCc2ccc(c(Cl)c2)OCCCN(C(=O)C(=O)NC2CCCCC2)C1` [Example 3012], 0.1 to 100 nM; to `CC1(C)CNC(=O)c2ccc(cc2)Nc2nc(nc(OCC(F)(F)F)n2)NCc2ccc(c(Cl)c2)OCCCN(C(=O)C(=O)Nc2ccccc2)C1` [Example 3009], 0.1 to 100 nM. Consider `CNC(=O)C(=O)N1CCCOc2ccc(cc2Cl)CNc2nc(nc(OCC(F)(F)F)n2)Nc2ccc(cc2)C(=O)NCC(C)(C)C1` [Example 3015], for which the EC50 (class symbol) was in the range of 0.1 to 100 nM.

As for `CC1(C)CNC(=O)c2ccc(cc2)Nc2nc(nc(OCC(F)(F)F)n2)NCc2ccc(c(Cl)c2)OCCCN(C(=O)C(=O)Nc2nccs2)C1` [Example 3019], the EC50 (class symbol) lay within 0.1 to 100 nM. For `CC1(C)CNC(=O)c2ccc(cc2)Nc2nc(nc(OCC(F)(F)F)n2)NCc2ccc(c(Cl)c2)OCCCN(C(=O)C(=O)N2CCc3ccccc3C2)C1` [Example 3013], where the note is “class symbol”, the EC50 was in the range of 0.1 to 100 nM. Same read-out and setting: to `C=C1COc2ccc(cc2)CNc2nc(nc(OCC(F)(F)F)n2)Nc2ccc(cc2)C(=O)NCC(C)(C)CN(C(=O)C(=O)Nc2ccc(F)cc2)C1` [Example 1004] belongs 0.1 to 100 nM. For `CC(C)CNC(=O)C(=O)N1CCCOc2ccc(cc2Cl)CNc2nc(nc(OCC(F)(F)F)n2)Nc2ccc(cc2)C(=O)NCC(C)(C)C1` [Example 3014], the EC50 (class symbol) fell in the range of 0.1 to 100 nM. As for `CC1(C)CNC(=O)c2ccc(cc2)Nc2nc(nc(OCC(F)(F)F)n2)NCc2ccc(c(Cl)c2)OCCCN(C(=O)C(=O)Nc2cccc(F)c2)C1` [Example 3007], where the note is “class symbol”, the EC50 was in the range of 0.1 to 100 nM. Consider `CC1(C)CNC(=O)c2ccc(cc2)Nc2nc(nc(OCC(F)(F)F)n2)NCc2ccc(c(Cl)c2)OCCCN(C(=O)C(=O)Nc2nncs2)C1` [Example 3006], for which the EC50 (class symbol) was 0.1 to 100 nM. With `C=C1COc2ccc(cc2)CNc2nc(nc(OCC(F)(F)F)n2)Nc2ccc(cc2)C(=O)NCC(C)(C)CN(C(=O)C(=O)O)C1` [Example 1002], the EC50 runs as follows: (class symbol) 0.1 to 100 nM; (numeric value) 5.73 nM. `CC1(C)CNC(=O)c2ccc(cc2)Nc2nc(nc(OCC(F)(F)F)n2)NCc2ccc(c(Cl)c2)OCCCN(C(=O)C(N)=O)C1` [Example 3002]: for the setting “class symbol”, the EC50 was 0.1 to 100 nM.

For `CC1(C)CNC(=O)c2ccc(nc2)Nc2cc(nc(OCC(F)(F)F)n2)NCc2ccc(cc2)OCCCN(C(=O)C(=O)Nc2ccc(Cl)c(F)c2)C1` [Example 2003], the EC50 runs as follows: (class symbol) 0.1 to 100 nM; (numeric value) 0.105 nM. `C=C1COc2ccc(cc2)CNc2nc(nc(OCC(F)(F)F)n2)Nc2ccc(cc2)C(=O)NCC(C)(C)CN(C(=O)C(=O)NCC2CC2)C1` [Example 1003]: where the note is “class symbol”, the 50% effective concentration (EC50) lay within 0.1 to 100 nM. Take `CC1(C)CNC(=O)c2ccc(nc2)Nc2cc(nc(OCC(F)(F)F)n2)NCc2ccc(cc2)OCCCN(C(=O)C(=O)Nc2ccc(C#N)cc2)C1` [Example 2004]: the EC50 (class symbol) was in the range of 0.1 to 100 nM. Still for that read-out and setting: for `CC1(C)CNC(=O)c2ccc(cc2)Nc2nc(nc(OCC(F)(F)F)n2)NCc2ccc(c(Cl)c2)OCCCN(C(=O)C(=O)N2CCCCC2)C1` [Example 3018] the value was 0.1 to 100 nM. As to `CC1(C)CNC(=O)c2ccc(cc2)Nc2nc(nc(OCC(F)(F)F)n2)NCc2ccc(c(Cl)c2)OCCCN(C(=O)C(=O)Nc2ccc(F)cc2)C1` [Example 3008], the EC50 is 0.1 to 100 nM (class symbol) and 2.42 nM (numeric value). On to `Cc1nnc(NC(=O)C(=O)N2CCCOc3ccc(cc3Cl)CNc3nc(nc(OCC(F)(F)F)n3)Nc3ccc(cc3)C(=O)NCC(C)(C)C2)s1` [Example 3020], for which, where the note is “class symbol”, the EC50 is 0.1 to 100 nM. Consider `CN(C)C(=O)C(=O)N1CCCOc2ccc(cc2Cl)CNc2nc(nc(OCC(F)(F)F)n2)Nc2ccc(cc2)C(=O)NCC(C)(C)C1` [Example 3001], for which, under “class symbol”, the EC50 lay within 0.1 to 100 nM.

A word on the EC50: it is the concentration at which the effect is half-maximal.
